US6384085B1, “Material separated from Ecklonia cava, method for extracting and purifying the same, and use thereof as antioxidants” (Ventree Co., Ltd., priority 2000, dated 2002)

How the values were obtained:
[1] = Thermal stability: antioxidative activity (DPPH) after heating for 1 hour; assay type: physicochemical
Procedure: (§1) The antioxidative activity of the novel compound obtained through the extraction and purification process is evaluated by measuring its radical scavenging activity against 1,1-diphenyl-2-picrylhydrazyl (DPPH), which has free radicals attached thereto, according to the Blois method. A thermal stability of the compound of interest can be evaluated by measuring its antioxidative activity at plural temperature points.
(§2) Dicaval C obtained in Example 3 was measured for antioxidative activity according to the Blois method. For this, an examination was made of the radical scavenging activity of the compound against 1,1-diphenyl-2-picrylhydrazyl (DPPH) to which free radicals were attached. First, 20 mg of DPPH was dissolved in 150 ml of ethanol to prepare a DPPH solution. To 600 μl of the DPPH solution was added 250 μl of dimethylsulfoxide (DMSO), diluted with an appropriate amount of ethanol and shaken for 10 seconds, after which this control was adjusted, in absorbance at 517 nm, from 0.94 to 0.97. To 1 ml of the DPPH solution which was adjusted from 0.94 to 0.97 likewise, each of the samples (μg to mg) was added and then, reacted for 10 min, followed by measuring the absorbance of the solution. The antioxidative activity of each of the samples was determined by the DPPH radical scavenging activity which was represented by a reduced absorbance compared with that of the control.
50 μg of Dicaval C obtained in Example 3 was heated at 40° C., 60° C., 80° C., and 100° C. for 1 hour to measure antioxidative activity.

[2] = Antioxidative activity: DPPH radical scavenging activity according to the Blois method; assay type: biochemical; conditions: 10 min reaction, absorbance at 517 nm
Procedure: as §1, §2

[3] = 50 μg heated at 40 °C for 1 hour
[4] = 50 μg heated at 60 °C for 1 hour
[5] = 50 μg heated at 80 °C for 1 hour
[6] = 50 μg heated at 190 °C [sic] for 1 hour

Row | SMILES | Antioxidativity (Absorb. change) [1, 3] | Notes (thermal stability) [1, 3] | Antioxidativity (Absorb. change) [1, 4] | Notes (thermal stability) [1, 4] | Antioxidativity (Absorb. change) [1, 5] | Notes (thermal stability) [1, 5] | Antioxidativity (Absorb. change) [1, 6] | Notes (thermal stability) [1, 6] | DPPH radical scavenging activity (antioxidative activity) ([2]; sample amount 10 μg) [%] | DPPH radical scavenging activity (antioxidative activity) ([2]; sample amount 20 μg) [%] | DPPH radical scavenging activity (antioxidative activity) ([2]; sample amount 100 μg) [%]
1 | Oc1cc(O)cc(Oc2cc(O)c(O)c3c2Oc2c(O)cc(O)cc2O3)c1 [Dicaval C] | 0.87 | Stable | 0.86 | Stable | 0.89 | Stable | 0.88 | Stable | 82 | 100 | 100
2 | O=C1O[C@H]([C@@H](O)CO)C(O)=C1O [Ascorbic acid, reference compound] | – | – | – | – | – | – | – | – | 100 | 100 | 100
